Reference: PubChem BioAssay AID1919003 (Molecular Pharmacology Branch, DTP, NCI, 2023)
Several values for one entry are separate records, joined by “and”; a condition that tells them apart may be missing. Identical values can stand only once.

System: 786-0 complex spheroids with HUVEC/MSC, growth % test/control
Test: Anticancer human tumor 786-0 cell line growth inhibition [AhR];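 note: compound exposure lasted seven days before the read-out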
Conditions: for viability, T/C: stronger effect = lower value
From the text: Multicellular complex tumor spheroid response to aryl hydrocarbon receptor antagonists in combination with a variety of drugs and investigational agents in selected tumor cell lines
The current study was undertaken to assess response to aryl hydrocarbon receptor antagonists in combination with standard-of-care drugs and investigational agents in solid tumor complex spheroid models. Complex spheroids include a stromal component modeled by human endothelial cells (HUVEC) and fibroblasts modeled by human mesenchymal stem cells (MSCs). The concentration ranges selected for each drug and investigational agent were based upon clinically achievable concentrations if the clinical Cmax of the agent was known.
Compounds. The drugs and investigational agents: BAY 2416964 (NSC825713), GNF351 (NSC835774), CH-223191 (NSC835775), CPI-455 (NSC825282), aza-TdCyd (NSC777586), decitabine (NSC127716), belinostat (NSC758774), entinostat (NSC756642), pevonedistat (NSC761192), tazemetostat (NSC777109), talazoparib (NSC765396), olaparib (NSC753686), selinexor (NSC780203), nedisertib (M3814, NSC802822), bortezomib (NSC756655), venetoclax (NSC766270), doxorubicin (NSC123127), elimusertib (BAY189344, NSC800525), ceralasertib (AZD6738, NSC777638), TAK-243 (NSC785004), alisertib (NSC759677), etoposide (NSC141540), topotecan (NSC609699), eribulin (NSC707389), gemcitabine (NSC613327), carboplatin (NSC241240), cisplatin (NSC119875), and SN-38 (NSC673596) were obtained from the National Cancer Institute (NCI) Developmental Therapeutics Program Chemical Repository (32). The FDA-approved anticancer drug set is available from the Developmental Therapeutics Program at https://dtp.cancer.gov/organization/dscb/obtaining/available plates.htm. […] The stock solutions were prepared in dimethyl sulfoxide (DMSO, Sigma-Aldrich, St. Louis, MO, cat. D2650), except for the platinum compounds which were prepared in saline (Quality Biological, Gaithersburg, MD, cat. 114-055-101), at 800-fold the tested concentration and stored at -70 degrees C prior to their use. All drugs and investigational agents were tested over a range starting from a high concentration at or near the clinical Cmax and decreasing in half-log increments. If the clinical Cmax for an agent had not been determined, the highest concentration tested was 10 microM (Table 1).
Cell Culture. All cells were maintained in an incubator at 37 degrees C and 5% CO2 with 95% humidity. The PDC lines were cultured according to standard operating procedures established by the NCI PDMR (https://pdmr.cancer.gov). Briefly, all PDCs were thawed and cultured in Matrigel-coated flasks prepared with a working solution of 1X Ham's F-12 nutrient mix, without supplementation (Invitrogen, Waltham, MA, cat. 11765054), 100 U/mL penicillin-streptomycin (Invitrogen, cat. 15140122), and 2.5% Matrigel (Corning Inc., Corning, NY, cat. 354248) for the first three passages. All PDCs were cultured in complete DMEM/F-12 media containing advanced DMEM/F-12 (Invitrogen, cat. 12634028), 4.9% defined fetal bovine serum, heat inactivated (HyClone Laboratories Inc., Logan, UT, cat. SH30070.03HI), 389 ng/mL hydrocortisone (Sigma-Aldrich, cat. H4001), 9.7 ng/mL human EGF recombinant protein (Invitrogen, cat. PHG0313), 23.4 microg/mL adenine (Sigma-Aldrich, cat. A2786), 97.3 U/mL penicillin-streptomycin (Invitrogen, cat. 15140122), 1.9 mM L-glutamine (Invitrogen, cat. 25030081), and 9.7 microM Y-27632 dihydrochloride (Tocris Bioscience, Bristol, United Kingdom, cat. 1254). The PDCs were cultured in complete DMEM/F12 media without 10 microM Y-27632 dihydrochloride for at least two passages prior to the screen. The established cell lines NCI-H1341 and […] were cultured in DMEM/F-12, HEPES (Invitrogen, cat. 11330032), 5% defined fetal bovine serum (HyClone Laboratories Inc., cat. SH30070.03), ITS premix universal culture supplement [insulin (5 microg/mL), transferrin (5 microg/mL), and selenious acid (5 ng/mL)] […]

[1] = curve of first compound, second compound 0.1 µM
[2] = curve of first compound, second compound 0.316 µM
[3] = curve of first compound, second compound 1 µM
[4] = curve of first compound, second compound 3.16 µM
[5] = curve of first compound, second compound 10 µM
[6] = second compound 0.1 µM, first compound 0.0316 µM
[7] = second compound 0.1 µM, first compound 0.1 µM
[8] = second compound 0.1 µM, first compound 0.316 µM
[9] = second compound 0.1 µM, first compound 1 µM
[10] = second compound 0.1 µM, first compound 3.16 µM
[11] = second compound 0.1 µM, first compound 10 µM
[12] = second compound 0.316 µM, first compound 0.0316 µM
[13] = second compound 0.316 µM, first compound 0.1 µM
[14] = second compound 0.316 µM, first compound 0.316 µM
[15] = second compound 0.316 µM, first compound 1 µM
[16] = second compound 0.316 µM, first compound 3.16 µM
[17] = second compound 0.316 µM, first compound 10 µM
[18] = second compound 1 µM, first compound 0.0316 µM
[19] = second compound 1 µM, first compound 0.1 µM
[20] = second compound 1 µM, first compound 0.316 µM
[21] = second compound 1 µM, first compound 1 µM
[22] = second compound 1 µM, first compound 3.16 µM
[23] = second compound 1 µM, first compound 10 µM
[24] = second compound 3.16 µM, first compound 0.0316 µM
[25] = second compound 3.16 µM, first compound 0.1 µM
[26] = second compound 3.16 µM, first compound 0.316 µM
[27] = second compound 3.16 µM, first compound 1 µM
[28] = second compound 3.16 µM, first compound 3.16 µM
[29] = second compound 3.16 µM, first compound 10 µM
[30] = second compound 10 µM, first compound 0.0316 µM
[31] = second compound 10 µM, first compound 0.1 µM
[32] = second compound 10 µM, first compound 0.316 µM
[33] = second compound 10 µM, first compound 1 µM
[34] = second compound 10 µM, first compound 3.16 µM
[35] = second compound 10 µM, first compound 10 µM

Row | SMILES | IC50 [1] | IC50 [2] | IC50 [3] | IC50 [4] | IC50 [5] | viability, T/C [6] | viability, T/C [7] | viability, T/C [8] | viability, T/C [9] | viability, T/C [10] | viability, T/C [11] | viability, T/C [12] | viability, T/C [13] | viability, T/C [14] | viability, T/C [15] | viability, T/C [16] | viability, T/C [17] | viability, T/C [18] | viability, T/C [19] | viability, T/C [20] | further results
1 | O=C(c1cc(Cc2n[nH]c(=O)c3ccccc23)ccc1F)N1CCN(C(=O)C2CC2)CC1 + CC(CO)NC(=O)c1cc(-c2ccc(Cl)cc2)nn(-c2cnn(C)c2)c1=O | > 10000 nM | > 10000 nM | > 10000 nM | > 10000 nM | > 10000 nM | 96.1% | 101% | 98.8% | 102% | 102% | 91.5% | 100% | 102% | 97.9% | 101% | 98.8% | 98.9% | 98.7% | 102% | 99.9% | viability, T/C [21]: 103%; viability, T/C [22]: 101%; viability, T/C [23]: 99%; viability, T/C [24]: 97.3%; viability, T/C [25]: 109%; viability, T/C [26]: 95.3%; viability, T/C [27]: 104%; viability, T/C [28]: 99.8%; viability, T/C [29]: 89.9%; viability, T/C [30]: 113%; viability, T/C [31]: 107%; viability, T/C [32]: 108%; viability, T/C [33]: 114%; viability, T/C [34]: 107%; viability, T/C [35]: 90.9%
2 | Nc1ccn(C2OC(CO)C(O)C2(F)F)c(=O)n1 (configuration not stated) + CC(CO)NC(=O)c1cc(-c2ccc(Cl)cc2)nn(-c2cnn(C)c2)c1=O | < 31.6 nM | < 31.6 nM | < 31.6 nM | < 31.6 nM | < 31.6 nM | 4.79% | 4.46% | 2.56% | 4.39% | 3.18% | 4.27% | 5.24% | 4.16% | 4.42% | 3.7% | 4.85% | 6.51% | 5.01% | 3.82% | 4.34% | viability, T/C [21]: 4.23%; viability, T/C [22]: 4.33%; viability, T/C [23]: 4.11%; viability, T/C [24]: 5.21%; viability, T/C [25]: 4.49%; viability, T/C [26]: 4.44%; viability, T/C [27]: 4.62%; viability, T/C [28]: 4.8%; viability, T/C [29]: 5.89%; viability, T/C [30]: 4.43%; viability, T/C [31]: 3.72%; viability, T/C [32]: 4.66%; viability, T/C [33]: 4.02%; viability, T/C [34]: 5.31%; viability, T/C [35]: 6.31%
3 | COc1ccc([C@@H](O)c2cc(-c3ncnc4cc(N5CCOCC5)ccc34)c(F)cc2Cl)nn1 + Cc1cncc(-c2nc(NCCc3c[nH]c4ccccc34)c3ncn(C(C)C)c3n2)c1 | > 10000 nM | > 10000 nM | > 10000 nM | > 10000 nM | < 31.6 nM | 103% | 111% | 111% | 112% | 109% | 89.9% | 112% | 111% | 114% | 120% | 103% | 95.4% | 107% | 103% | 96.4% | viability, T/C [21]: 104%; viability, T/C [22]: 103%; viability, T/C [23]: 84.8%; viability, T/C [24]: 73%; viability, T/C [25]: 73.3%; viability, T/C [26]: 66.4%; viability, T/C [27]: 62.7%; viability, T/C [28]: 61.2%; viability, T/C [29]: 61.5%; viability, T/C [30]: 6.44%; viability, T/C [31]: 5.3%; viability, T/C [32]: 8.33%; viability, T/C [33]: 5.44%; viability, T/C [34]: 5.99%; viability, T/C [35]: 9.73%
4 | COc1cc(C2c3cc4c(cc3C(OC3OC5COC(C)OC5C(O)C3O)C3COC(=O)C23)OCO4)cc(OC)c1O (configuration not stated) |  |  |  |  |  |  |  |  |  |  |  |  |  |  |  |  |  |  |  |  | viability, T/C (compound 0.0316 µM): 101% and 104% and 103%; viability, T/C (compound 0.1 µM): 100% and 95.1% and 109%; viability, T/C (compound 0.316 µM): 75% and 74.2% and 81.8%; viability, T/C (compound 1 µM): 46.5% and 25.8% and 49%; viability, T/C (compound 3.16 µM): 26.6% and 22.7% and 27%; viability, T/C (compound 10 µM): 5.89% and 5.81% and 13.3%; IC50 (curve of compound): 951 nM and 572 nM and 989 nM
